Laboratory results taken from patent US20230190870A1, “Method for Treating Lysosomal Storage Diseases with Histatin Peptides” (THE BOARD OF TRUSTEES OF THE UNIVERSITY OF ILLINOIS, priority 2020, published 2023).
Square brackets hold non-standard residues; d marks the D form. Peptide text beside a SMILES is read from it. pS = N[C@@H](COP(=O)(O)O)C(=O)O

Columns and labels:
[1] = target: T1, full-length recombinant TMEM97 (HEK293 cells) (Homo sapiens, UniProt Q5BJF2); assay: Surface plasmon resonance, immobilized full-length TMEM97; type: binding
T1 construct: Recombinant full-length TMEM97 (also called MAC30, from HEK293 cells); purchased OriGene (Rockville, Md.); host or cells: HEK293 cells
T1 sequence (Q5BJF2 whole entry): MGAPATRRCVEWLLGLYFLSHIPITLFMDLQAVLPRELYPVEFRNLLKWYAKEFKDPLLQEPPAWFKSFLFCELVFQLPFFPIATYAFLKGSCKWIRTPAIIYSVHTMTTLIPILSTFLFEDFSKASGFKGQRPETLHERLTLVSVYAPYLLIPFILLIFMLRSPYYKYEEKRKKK

[2] = target: T2, GST-TMEM97 (108-176) (Homo sapiens, UniProt Q5BJF2); assay: Surface plasmon resonance, immobilized GST-TMEM97 (108-176); type: binding; conditions: for % Rmax: SPR
T2 construct: GST-TMEM97 (108-176, recombinant GST-C terminal from wheat germ); purchased Abnova (Taipei City, Taiwan); host or cells: wheat germ (cell-free)
T2 sequence (Q5BJF2 108-176): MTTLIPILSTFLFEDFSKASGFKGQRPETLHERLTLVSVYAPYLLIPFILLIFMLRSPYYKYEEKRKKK
Procedure: (§1) Surface Plasmon Resonance (SPR). Recombinant full-length TMEM97 (also called MAC30, from HEK293 cells) and GST-TMEM97 (108-176, recombinant GST-C terminal from wheat germ) proteins were purchased from OriGene (Rockville, Md.) and Abnova (Taipei City, Taiwan), respectively. Three peptides, TMEM97 (108-176), TMEM97 (108-143) and TMEM97 (144-176), were synthesized. All proteins and peptides were initially prepared in HBS buffer containing 10 mM HEPES, pH 7.4, 150 mM NaCl, and 0.05% surfactant P20. The CM5 sensor surface was first activated by 1-ethyl-3-(3-dimethylaminopropyl) carbodiimide hydrochloride (EDC)/N-hydroxy succinimide (NHS) mixture using a Biacore T200 or Biacore 8K instrument (GE Healthcare). […] Flow channels 1 and 3 were used as references.
(§2) The three synthesized peptides were diluted to 50 μg/mL in 10 mM sodium acetate at pH 4.0 and immobilized to flow channels 2, 3 and 4, respectively, on another sensor chip. The unmodified surfaces on a flow channel 1 were used as a reference control. Histatin solutions with a series of increasing concentrations (0.78-25 μM at 2-fold dilution) were applied to all four channels at a 30 μL/minute flow rate at 25° C. The data were double-referenced with reference channel and zero concentration responses, and reference subtracted sensorgrams were fitted with 1 to 1 Langmuir kinetic model using a Biacore T200 evaluation software V3.0 or Insight evaluation software. The equilibrium dissociation constants ([…]) were determined from two rate constants (KD=kd/ka).
(§3) To determine the region(s) of Hst1 that mediate binding to TMEM97, SPR testing was performed with various Hst1 fragments and either recombinant TMEM97 (GST-tagged, wheat-germ derived, C-terminal fragment TMEM97 (108-176)) or synthesized TMEM97 (TMEM97 (108-176), TMEM97 (108-143) and TMEM97 (144-176)).

[3] = target: T3, Synthetic TMEM97 (108-176) (Homo sapiens, UniProt Q5BJF2); assay: Surface plasmon resonance, immobilized synthetic TMEM97 (108-176); type: binding; conditions: SPR
T3 construct: Three peptides, TMEM97 (108-176), TMEM97 (108-143) and TMEM97 (144-176), were synthesized; made in house; host or cells: chemical solid-phase synthesis (Fmoc, Wang resin)
T3 sequence (Q5BJF2 108-176): as above
Procedure: as §1, §2
(§4) To determine more precisely which segment of TMEM97 is necessary for binding of Hst1, multiple synthetic fragments of TMEM97 were generated (Table 6) and binding to Hst1 was tested using SPR. […] Smaller fragments of the C-terminal of TMEM97 were then constructed to represent the (predicted) luminal (108-143) and cytoplasmic (144-176) exposed segments of the C-terminus of TMEM97 based on modeling experiments previously described. […] SPR results for Hst1 were confirmed using ITC as an orthogonal analytical method.
as §3

[4] = target: T4, Synthetic TMEM97 (108-143) (Homo sapiens, UniProt Q5BJF2); assay: Surface plasmon resonance, immobilized synthetic TMEM97 (108-143); type: binding; conditions: SPR
T4 construct: made in house; host or cells: chemical solid-phase synthesis (Fmoc, Wang resin)
T4 sequence (Q5BJF2 108-143 limits assumed): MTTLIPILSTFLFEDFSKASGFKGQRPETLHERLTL
Procedure: as §1, §2, §4, §3

[5] = target: T5, Synthetic TMEM97 (144-176) (Homo sapiens, UniProt Q5BJF2); assay: Surface plasmon resonance, immobilized synthetic TMEM97 (144-176); type: binding; conditions: SPR
T5 construct: made in house; host or cells: chemical solid-phase synthesis (Fmoc, Wang resin)
T5 sequence (Q5BJF2 144-176): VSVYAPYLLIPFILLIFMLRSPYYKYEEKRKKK
Procedure: as §1, §2, §4, §3

[6] = test system: Synthetic TMEM97 (144-176); assay: as above; type: binding; conditions: mutations E170A, E171A and E170A/E171A of TMEM97 (144-176)
Procedure: as §1, §2, §4, §3

[7] = target: T6, TMEM97 (108-176) (Homo sapiens, UniProt Q5BJF2); assay: Isothermal titration calorimetry, TMEM97 (108-176); type: binding; conditions: ITC
T6 construct: Three peptides, TMEM97 (108-176), TMEM97 (108-143) and TMEM97 (144-176), were synthesized; made in house; host or cells: chemical solid-phase synthesis (Fmoc, Wang resin)
T6 sequence (Q5BJF2 108-176): as the sequence (Q5BJF2 108-176) above
Procedure: Isothermal Titration Calorimetry (ITC). The three synthesized peptides, TMEM97 (108-176), TMEM97 (108-143) and TMEM97 (144-176) were prepared in ITC buffer (10 mM Tris, pH 7.4, 150 mM NaCl, 0.05% polysorbate 20) at 40 μM concentration and placed in the sample cell. All ITC experiments were performed while stirring at 395 rpm, in ITC buffer at 25° C. using a VP-ITC titration microcalorimeter from MicroCal™, LLC (Northampton, Mass.). The microsyringe was loaded with a Histatin 1 solution (500 μM in ITC buffer). All titrations were conducted using an initial injection of 2.5 μL followed by 35 identical injections of 5 μL with a duration of 16 seconds (per injection) and a spacing of 210 seconds between injections. The buffer control titration (Histatin 1 into buffer) signals were subtracted from the experimental data. The collected data were evaluated using NITPIC (NIH), SEDPHAT (NIH), and GUSSI (NIH).
To determine more precisely which segment of TMEM97 is necessary for binding of Hst1, multiple synthetic fragments of TMEM97 were generated (Table 6) and binding to Hst1 was tested using SPR. […] Smaller fragments of the C-terminal of TMEM97 were then constructed to represent the (predicted) luminal (108-143) and cytoplasmic (144-176) exposed segments of the C-terminus of TMEM97 based on modeling experiments previously described. […]

[8] = test system: NPC1 KD cells; assay: Filipin staining of cholesterol in NPC1 knockdown cells; type: cell-based; conditions: 20 μM or 50 μM
From the text: Cholesterol. […] Filipin staining, the generally accepted tool for detection of cholesterol deposits in NPC cells (Vanier, et al. (2003) Clin. Genet. 64:269-81), was used to visualize cholesterol in control and NPC1 KD cells. This analysis indicated increased clustering and collection of filipin-stained cholesterol in NPC1 KD cells, consistent with the NPC1 phenotype.

[9] = test system: NPC knockout fibroblasts (NPC1−/−); assay: Filipin and LAMP1 staining in NPC knockout fibroblasts; type: cell-based, human
Procedure: In addition, cholesterol accumulation in wild type human skin fibroblasts or NPC knockout fibroblasts (NPC1^−/−) were evaluated with or without Hst1 treatment. […] Additionally, LAMP1 lysosomal marker accumulation in untreated NPC1^−/− cells were normalized with Hst1 treatment.

[10] = test system: NPC1 (I1061T mutant) homozygous patient fibroblasts; assay: Cellular calcium in NPC1 (I1061T mutant) patient fibroblasts; type: cell-based, human
[11] = cyclization of histatin-1; cited from earlier work
[12] = addition of either DTG or haloperidol

## CC(C)C[C@H](NC(=O)[C@H](Cc1ccc(O)cc1)NC(=O)[C@H](CC(N)=O)NC(=O)[C@H](CO)NC(=O)CNC(=O)[C@H](Cc1ccc(O)cc1)NC(=O)[C@H](CC(=O)O)NC(=O)CNC(=O)[C@H](Cc1ccc(O)cc1)NC(=O)[C@H](Cc1ccccc1)NC(=O)[C@@H]1CCCN1C(=O)[C@H](Cc1ccccc1)NC(=O)[C@H](CCC(=O)O)NC(=O)[C@H](CCCNC(=N)N)NC(=O)[C@H](Cc1c[nH]cn1)NC(=O)[C@H](CO)NC(=O)[C@H](Cc1c[nH]cn1)NC(=O)[C@H](Cc1c[nH]cn1)NC(=O)[C@H](CCCCN)NC(=O)[C@H](CCC(=O)O)NC(=O)[C@H](Cc1c[nH]cn1)NC(=O)[C@H](Cc1ccccc1)NC(=O)[C@H](CCCCN)NC(=O)[C@H](CCCNC(=N)N)NC(=O)[C@H](CCCNC(=N)N)NC(=O)[C@H](Cc1ccc(O)cc1)NC(=O)CNC(=O)[C@H](Cc1c[nH]cn1)NC(=O)[C@H](Cc1c[nH]cn1)NC(=O)[C@H](CCCNC(=N)N)NC(=O)[C@H](CCCCN)NC(=O)[C@H](CCC(=O)O)NC(=O)[C@H](Cc1c[nH]cn1)NC(=O)[C@H](COP(=O)(O)O)NC(=O)[C@@H](N)CC(=O)O)C(=O)N[C@@H](Cc1ccc(O)cc1)C(=O)N[C@@H](CC(=O)O)C(=O)N[C@@H](CC(N)=O)C(=O)O [Hst1] (H-D[pS]HEKRHHGYRRKFHEKHHSHREFPFYGDYGSNYLYDN-OH; N-terminus and C-terminus assumed)
[1]; SPR
  % Rmax: 32%
[1]; SPR, 25° C., 1 to 1 Langmuir kinetic model
  Kd: 1300 ± 300 nM
[1]; [12]
  effect of added DTG or haloperidol on Hst1 binding: did not affect
[2]
  % Rmax: 43%
[2]; listed as Hst1(1-38)
  % Rmax: (% Rmax = 23%)
[2]; [12]
  effect of added DTG or haloperidol on Hst1 binding: did not affect
[3]
  % Rmax: 38%
  Kd: 2400 nM
[3]; listed as Hst1(1-38)
  % Rmax: (% Rmax = 23%)
[4]
  KD / binding: unable to bind
[4]; listed as Hst1(1-38)
  KD / binding: No binding
[5]
  % Rmax: 21%
  Kd: 2400 nM
[5]; listed as Hst1(1-38)
  % Rmax: (% Rmax = 22%)
[6]
  effect of TMEM97 mutations on Hst1 binding: did not affect
[7]
  ΔS: 11.6±3.4 cal/mol K
[7]; 25° C.
  Kd: 890 ± 200 nM
[8]
  cholesterol accumulation (Filipin staining): reduced cholesterol accumulation
[9]
  LAMP1 lysosomal marker accumulation: normalized
  cholesterol accumulation (Filipin stained cells): reduction in cholesterol accumulation
[10]
  cellular calcium levels: increased cellular calcium levels
[11]
  potentiation of molar activity by cyclization: approximately 1000 fold
